Read-outs that look alike come from different tables or passages of the source.
How the values were obtained:
[1] = molecular target: 3H-Diazepam binding, rat brain cortical fragments; experiment: 3H-Diazepam Binding Assay; details: read-out: IC50 (nM), concentration required to inhibit binding by 50%, Tris buffer, assayed in triplicate
Description: Brief-Description: Rat brain cortical fragments are prepared and the binding procedures performed as described by Mohler and Okada (Life Sciences, 20, 2101, 1977) except that Tris buffer is substituted for Krebs buffer. Drugs are assayed in triplicate.
Measurements Made: Radioactivity is measured by liquid scintillation counting.

[2] = system: convulsions (metrazol iv); experiment: Intravenous Antimetrazol Test; assay type: in vivo, Male CF-1 mice; details: Mus musculus, po, 1 h
Description: Intravenous Antimetrazol Test
Brief Description: Male CF-1 mice, 45-54 days old, housed in facilities for one week and food-deprived for about 24 hours, are used in this test. The test compound, dispersed in 5% acacia, is administered orally to three mice at 1/10 the dose at which lethality occurred in the TSP testing. One hour later, metrazol is administered intravenously at 70 mg/kg (convulsant dose 100 mg/kg) and animals are observed 30 seconds for protection against convulsions. If the compound is active orally, 3 animals are used per dose level.
Measurements Made: The number of animals protected from convulsions.
Calculations: If the drug is active and three mice are used per dose level, the approximate ED50 is calculated by the method of Miller and Tainter (Proc. Soc. Exp. Biol. Med. 57:261, 1944). If six or more mice are used per dose level, the ED50 values and 95% fiducial limits are calculated using a computer program based on the method of D. J. Finney ("Probit Analysis", Cambridge University Press, Cambridge, England, 1971).

[3] = LD50 (po) acute lethality; set-up: species or system mice; details: mouse, in vivo
[4] = 1 hour before metrazol 70 mg/kg iv, 50% of animals protected from convulsive seizures, test compounds, read-out: ED50
[5] = mice, printed in binding results table
[6] = printed in antimetrazol results table
[7] = standard drugs, read-out: ED50 (95% Fiducial Limits)

SMILES	IC50 [1] [nM]	ED50 [2, 4] [mg/kg]	LD50 [3, 5] [mg/kg]	LD50 [3, 6] [mg/kg]	ED50 [2, 7] [mg/kg]
CC1NC(=O)C2=C1c1ccc(Cl)cc1C(c1ccccc1Cl)=NC2 (centres unmarked) [8-Chloro-6-(2-chlorophenyl)-1,4-dihydro-1-methylpyrrolo[3,4-d][2]benzazepin-3(2H)-one]	1	0.08	> 1000	> 1000	–
CN1CC2=C(CN=C(c3ccccc3Cl)c3cc(Cl)ccc32)C1=O [8-chloro-6-(2-chlorophenyl)-1,4-dihydro-2-methylpyrrolo[3,4-d][2]benzazepin-3(2H)-one]	–	0.08	800	800	–
CNC1=Nc2ccc(Cl)cc2C(c2ccccc2)=[N+]([O-])C1 [Chlordiazepoxide]	–	–	–	–	3.9
CN1C(=O)CN=C(c2ccccc2)c2cc(Cl)ccc21 [Diazepam]	–	–	–	–	1
CCN(CC)CCN1C(=O)CN=C(c2ccccc2F)c2cc(Cl)ccc21 [Flurazepam, reference compound]	15.6	–	–	–	–
CCC1(c2ccccc2)C(=O)NC(=O)NC1=O [Sodium Phenobarbital]	–	–	–	–	19
